The values that follow come from patent US6482804B1, “Compositions and methods for delivery of genetic material” (Wyeth, priority 1997, dated 2002).

This data set is described as follows: Scanning and transmission electron microscopy (SEM/TEM) of surfactant:DNA complexes. The data set is classed as physicochemical. To be noted: aqueous formulations. The procedure: Scanning electron microscopy (SEM) and transmission electron microscopy (TEM) were employed to visualize the resulting complexes formed by the benzylammonium-containing surfactant and polynucleic acid compositions of this invention.
Each formulation containing 8.71% sucrose w/v and 5 mM phosphate buffer at pH6.7±0.5.
ii. […] However, upon addition of DNA, vesicular complexes are formed, when observed by SEM.
iii. […] Similar particle distribution was found at both concentrations of DNA, but in larger numbers with higher DNA concentrations. Larger particles in higher DNA concentrations appear to have derived from the fusion of several 50 nm particles. Formation of larger particles was dependent on the concentration of DNA in the formulation. These particles were visualized by shadow casting in SEM analysis using carbon, and were visible by short (10 second) exposure to the contrasting agent uranyl acetate in TEM analysis. The TEMs show membranous structures typical of liposomes described in literature.
As controls, SEM of DNA alone and benzalkonium chloride alone in aqueous solutions were performed. Vesicular structures are found only when aqueous solutions of DNA and benzalkonium chloride are mixed. TEMs show structures that are vesicular and some are multilamellar. Membranous structures found in these TEMs are consistent with the formation of lamellar vesicular complexes in liposomes.

On to benzalkonium chloride, for which the “structures seen by SEM/TEM” value is given as “does not form vesicular complexes”.
